From article PMC12067128, “Macrocyclization: Enhancing Drug-like Properties of Discoidin Domain Receptor Kinase Inhibitors” (ACS Medicinal Chemistry Letters, 2025) come the findings set out here.

A short description of one data set: EPSA polarity descriptor. In kind it is physicochemical. Particulars: almost fully nonpolar environment; polarity in nonpolar environment. As to the method: (§1) Polarity is quantified by two descriptors: EPSA and Δlog kw ^IAM. The first is measured in an almost fully nonpolar environment, and the second describes polarity in an aqueous medium. […] This is also in line with the higher solubility of KIMCs over 1.

Data set [1] can be described thus: log k'80 PLRP-S chromatographic descriptor. In kind it is physicochemical. Particulars: surrogate of log Dtol. An excerpt:
(§2) Lipophilicity has been obtained in four different systems. BRlogD and ChromlogD are chromatographic surrogates of log Doct and, despite showing different values, are linearly correlated (Figure S4). Log k′ 80 PLRP-S is a surrogate of log Dtol. Log kw ^IAM mimics the interaction between the compounds and the phospholipids of membranes. The combination of the experimental lipophilicity descriptors is essential to evaluate lipophilicity in different regions of the membrane bilayer. This complete lipophilicity profile may give an idea of the permeability potential of poorly soluble compounds for which standard permeability measurements are unreliable. […] This is supported by its low IC50 value in the cell-based assay.

Data set [2] can be described thus: Caco-2 membrane permeability assay. Particulars: human. In kind it is in vitro ADME. As to the method:
(§3) Lucifer Yellow (LY) was added to the apical buffer in all wells to assess viability of the cell layer. As LY cannot freely permeate lipophilic barriers, a high degree of LY transport indicates poor integrity of the cell layer and wells with a LY Papp > 10 x 10-6 cm/s were rejected. Compound recovery from the wells was determined from MS responses (normalised to internal standard) in donor and acceptor chambers at the end of incubation compared to response in the donor chamber pre- […]
(§4) which may reduce the reliability of a result.
(§5) Caco-2 membrane permeability assay
(§6) Caco-2 cells (ECACC) were cultured in DMEM, 10% FBS, 1% NEAA, Hepes buffer 10 mM and in 50 U/mL penicillin and […] streptomycin. For transport studies, 200,000 cells/well were seeded on Millicell 24-well cell culture plates. After 24 hours of incubation at 37 °C and 5% CO2, the medium was changed with Enterocyte Differentiation Medium (Becton Dickinson), which allows Caco-2 cells to establish within three days a differentiated enterocyte monolayer. The permeability of the compounds across the cells’ monolayer was determined by measuring their transport in both directions: apical to basolateral (A → B) and basolateral to apical (B → A). For A → B directional transport, the donor working solution with test article 10 m M) was added to the apical (A) compartment and HBSS (pH 7.4) was added to the basolateral (B). For B → A directional transport, the donor working solution (with test article 10 m M) was added to the basolateral (B) compartment and HBSS (pH 7.4) was added to the apical (A). Samples were collected at T0 and after 2h incubation (5% CO2, 95% relative humidity, 37 °C) for LC-MS/MS analyses. The Papp expressed as nm/sec was calculated as follows: Papp (nm/sec) = (Vr/C0) x (1/A) x (Cr(t)/T) x 1000 000. Where
Vr is the volume of the solution in the receiving compartment (mL); C0 is initial test compound concentration in the donor compartment (expressed as area ratio); A is the membrane surface area (cm2); Cr (t) = measured concentration of the receiver well at time T120 (expressed as area ratio) and T is time of incubation (sec). Efflux ratio was also measured to understand if the compounds undergo active efflux: Efflux ratio = Papp [B > A] / Papp [A > B]. The rank order of apparent permeability of the test compound was compared with that of known reference compounds tested in the same experiment, including Sulpiride and Metoprolol (as marker for low and high permeability, respectively and Talinolol (as known P-gp substrate). […]

Data set [3] is described as follows: Chamelogk chameleonicity descriptor. Particulars: >0.6 = chameleons, <0.6 = non-chameleons. In kind it is physicochemical. As to the method:
Finally, chameleonicity was measured with the recently described Chamelogk method (Table ), where 0.6 is the threshold value to distinguish chameleons from non-chameleons.

Data set [4] can be described thus: Microsomes stability (clearance in human microsomes). In kind it is in vitro ADME. Particulars: pH 7.4, 0.8 mg protein/mL, 1 mM NADPH, 37 °C, read-out: CLint h mic (clearance in human microsomes). As for the experimental part:
values in Caco-2 assay were: <10 nm/s = low level; 10-50 nm/s = medium level; >50 nm/s = high […]
Test compounds were incubated, in duplicate, at the concentration of 1 μM with liver microsomes (0.8 mg protein/mL) in Dulbecco’s buffer (pH 7.4) at 37 °C in the presence of 1 mM NADPH. At different time points (0, 5, 10, 20, 30, and 60 min), 50 μL aliquots of the incubates were taken, added with 80 μL of ice-cold acetonitrile, and 20 μL of 1 μM warfarin in acetonitrile (injection check) to stop the reaction, and samples were centrifuged. The supernatants were analyzed by LC−MS/MS for unchanged compounds. Test compounds were incubated with liver microsomes in Dulbecco’s buffer in the absence of NADPH for 0 and 60 min, as control. Midazolam at the concentration of 1 μM, was incubated with microsomes as positive control for phase I activity of microsomes. Control samples were processed as test compound samples.

Data set [5] can be described thus: Δlog kW IAM polarity descriptor. Particulars: polarity in aqueous medium. In kind it is physicochemical. As for the experimental part: as §1
The nature of data set [6]: log kW IAM (immobilized artificial membrane chromatography). In kind it is physicochemical. Particulars: lipophilicity descriptor, phospholipid interaction.
Text: as §2

Data set [7] in a line: BRlogD chromatographic lipophilicity. In kind it is physicochemical. Particulars: XBridge Shield RP18, pH 7.0, 60% acetonitrile.
Protocol: The original method was described in a previous paper.e Briefly, a HPLC Thermo Fisher Scientific Dionex Ultimate 3000 instrument equipped with a Low-Pressure Mixing Gradient Pump LPG-3400 SD, ACC-3000 autosampler with termostatable column compartment, a DAD-3000 RS Detector and Chromeleon Data System Version 7.2.10 was used. Deionized water and HPLC grade acetonitrile were used throughout. The mobile phases consisted of 20 mM ammonium acetate at pH 7.0 and acetonitrile 60% v/v. Samples were dissolved in a 1:1 mixture of buffer/acetonitrile in the concentration range of 50–100 ug/mL. A 10uL volume of each solution was injected at 30°C and flow rate was 1 mL/min. The dead time, t0, was determined by monitoring the baseline disturbance.
retention time (tR) was measured on a XBridgeTM Shield RP18 (Waters, 5cm x 4.6 mm, 5 µm particle size, 130Å pore size). Isocratic log k’ (capacity factor k’ = (tR - t0)/t0) values were measured. The relationship between log D and log k’60 has been determined previously and is reported below (Eq.
We termed this log D as BRlogD.
The target of the next data set is T1, Pgp (Homo sapiens, UniProt P08183).
T1 construct: host or cells: Caco-2 cells
T1 sequence (P08183 whole entry): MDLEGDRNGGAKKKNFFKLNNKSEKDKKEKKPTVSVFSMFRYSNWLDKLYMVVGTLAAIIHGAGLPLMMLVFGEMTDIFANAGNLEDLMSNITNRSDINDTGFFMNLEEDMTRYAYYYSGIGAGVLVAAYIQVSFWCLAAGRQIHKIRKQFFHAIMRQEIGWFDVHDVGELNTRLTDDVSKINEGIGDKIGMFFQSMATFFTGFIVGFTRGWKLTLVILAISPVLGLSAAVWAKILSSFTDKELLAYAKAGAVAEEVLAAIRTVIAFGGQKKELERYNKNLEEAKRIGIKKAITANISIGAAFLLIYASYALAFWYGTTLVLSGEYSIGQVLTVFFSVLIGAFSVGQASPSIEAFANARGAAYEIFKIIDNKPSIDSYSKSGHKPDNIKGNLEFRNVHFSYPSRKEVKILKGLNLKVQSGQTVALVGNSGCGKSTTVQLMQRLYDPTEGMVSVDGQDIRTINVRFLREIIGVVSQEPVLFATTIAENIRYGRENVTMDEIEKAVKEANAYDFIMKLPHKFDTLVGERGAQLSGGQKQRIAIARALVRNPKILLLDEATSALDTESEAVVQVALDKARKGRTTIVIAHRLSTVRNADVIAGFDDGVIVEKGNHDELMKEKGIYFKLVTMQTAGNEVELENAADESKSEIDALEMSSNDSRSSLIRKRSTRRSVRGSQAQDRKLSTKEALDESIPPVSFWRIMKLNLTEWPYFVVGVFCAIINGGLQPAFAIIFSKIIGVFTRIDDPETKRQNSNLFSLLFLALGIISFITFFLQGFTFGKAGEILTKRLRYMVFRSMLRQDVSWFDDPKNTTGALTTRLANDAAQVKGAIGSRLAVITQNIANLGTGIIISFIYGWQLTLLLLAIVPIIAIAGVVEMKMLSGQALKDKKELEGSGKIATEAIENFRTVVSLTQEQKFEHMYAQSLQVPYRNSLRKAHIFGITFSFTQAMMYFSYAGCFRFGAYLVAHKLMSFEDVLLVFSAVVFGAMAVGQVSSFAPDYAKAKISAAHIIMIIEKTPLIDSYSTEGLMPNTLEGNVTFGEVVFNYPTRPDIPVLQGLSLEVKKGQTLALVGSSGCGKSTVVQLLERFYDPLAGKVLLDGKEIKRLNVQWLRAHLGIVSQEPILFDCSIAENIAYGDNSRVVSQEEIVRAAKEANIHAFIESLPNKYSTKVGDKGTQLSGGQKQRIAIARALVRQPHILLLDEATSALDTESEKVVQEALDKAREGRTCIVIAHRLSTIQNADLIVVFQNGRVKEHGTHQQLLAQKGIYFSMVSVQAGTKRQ
The experiment in a line: Pgp substrate assessment from Caco-2 permeability with/without Pgp inhibitor. In kind it is in vitro ADME. As for the experimental part:
as §3, §4, §5
as §6, with “For B → A directional transport, the donor working solution (with test article 10 m M) was added to the basolateral (B) compartment and HBSS (pH 7.4) was added to the apical (A). Samples were collected at T0 and after 2h incubation (5% CO2, 95% relative humidity, 37 °C) for LC-MS/MS analyses.” left out, “Where” left out
Vr is the volume of the solution in the receiving compartment (mL); C0 is initial test compound concentration in the donor compartment (expressed as area ratio); A is the membrane surface area (cm2); Cr (t) = measured concentration of the receiver well at time T120 (expressed as area ratio) and T is time of incubation (sec). Efflux ratio was also measured to understand if the compounds undergo active efflux: Efflux ratio = Papp [B > A] / Papp [A > B]. […]
Background: Passage across Caco-2 layers is used to estimate intestinal permeability.

Where [8] appears, read: Caco-2, pH 7.4, Caco-2 Papp AB with Pgp inhibitor.
[9] abbreviates: Caco-2, pH 7.4, Caco-2 Papp AB without Pgp inhibitor.
[10] abbreviates: Caco-2, pH 7.4, Caco-2 Papp BA with Pgp inhibitor.
Setting [11] is: Caco-2, pH 7.4, Caco-2 Papp BA without Pgp inhibitor.
Where [12] appears, read: Caco-2, pH 7.4, A to B, without Pgp inhibitor, pH 7.4, 2 h, read-out: Caco-2 Papp AB without Pgp inhibitor.
[13] abbreviates: Caco-2, pH 7.4, B to A, without Pgp inhibitor, pH 7.4, 2 h, read-out: Caco-2 Papp BA without Pgp inhibitor (converted).
Setting [14] is: Caco-2, pH 7.4, with Pgp inhibitor (name and concentration not stated), A to B, with Pgp inhibitor, pH 7.4, 2 h, read-out: Caco-2 Papp AB with Pgp inhibitor.
Where [15] appears, read: Caco-2, pH 7.4, with Pgp inhibitor (name and concentration not stated), B to A, with Pgp inhibitor, pH 7.4, 2 h, read-out: Caco-2 Papp BA with Pgp inhibitor (converted).

Where two headings read alike, the source gives them in different places.

For `Cn1cc2c3nc(ncc31)Nc1cnn(c1)CCCNCCOc1ccc-2cc1` [Compound 5a], the EPSA in the data set “EPSA polarity descriptor” amounted to 125 A^2. Besides, the “logk'80 PLRP-S” value in data set [1] is reported as -0.65. Besides, the Papp A→B at 2 h, 10 µM in data set [2] (setting [8]) amounted to 19.9 ± 2.7 ×10⁻⁶ cm/s; in [2] (setting [9]), 10.2 ± 1.5 ×10⁻⁶ cm/s. In addition, the Papp B→A at 2 h, 10 µM is 13.5 ×10⁻⁶ cm/s in data set [2] (setting [10]) and 24.2 ×10⁻⁶ cm/s in data set [2] (setting [11]). This compound gave a Chamelogk in data set [3] of 1.76. For the same compound, the microsomal CLint at 1 h, 1 µM in data set [4] (microsomes) is 80.5 ± 2.7 µL/min/mg. In addition, the “Δlog kW^IAM” value in data set [5] was determined as 2.77. Besides, in [6], the “log kW^IAM” value is reported as 2.33. This compound also yielded a BRlogD in data set [7] of 0.64.

On to `Cn1cc2c3nc(ncc31)Nc1cnn(c1)CCCNC(=O)COc1ccc-2cc1` [Compound 5b], for which, in the data set “EPSA polarity descriptor”, the EPSA was 106 A^2. For the same compound, the “logk'80 PLRP-S” value in [1] is listed as -0.68. Further, the Papp A→B at 2 h, 10 µM came out at 3 ± 0.6 ×10⁻⁶ cm/s in [2] (setting [12]) and 22.8 ± 2.8 ×10⁻⁶ cm/s in data set [2] (setting [14]). In addition, the Papp B→A at 2 h, 10 µM in [2] (setting [13]) is 21.5 ×10⁻⁶ cm/s; in [2] (setting [15]), 15.9 ×10⁻⁶ cm/s. For the same compound, in data set [3], the Chamelogk was 0.61. Also, the microsomal CLint at 1 h, 1 µM in data set [4] (liver microsomes) was found to be 88.5 ± 9.6 µL/min/mg. Further, the Pgp substrate entry on Pgp (Caco-2 model) is on record as “YES”. Further, in data set [5], the “Δlog kW^IAM” value was found to be 2.41. For the same compound, the “log kW^IAM” value in data set [6] amounted to 1.87. In data set [7], this compound returned a BRlogD of 0.53.

As to `c1cc2nc(n1)Nc1cnn(c1)CCCNCCOc1ccc(cc1)N2` [Compound 6a], the EPSA in “EPSA polarity descriptor” was 127 A^2. Further, the “logk'80 PLRP-S” value in data set [1] is reported as -0.93. For the same compound, the Papp A→B at 2 h, 10 µM in data set [2] (setting [8]) was found to be 8.7 ± 1.9 ×10⁻⁶ cm/s; in data set [2] (setting [9]), 1.9 ± 0.5 ×10⁻⁶ cm/s. For the same compound, the Papp B→A at 2 h, 10 µM in data set [2] (setting [10]) was 7 ×10⁻⁶ cm/s; in data set [2] (setting [11]), 22 ×10⁻⁶ cm/s. The same compound yielded a Chamelogk in data set [3] of 1.63. In addition, the microsomal CLint at 1 h, 1 µM in [4] (microsomes) stood at 22.1 ± 1.4 µL/min/mg. Moreover, the Pgp substrate entry on Pgp (Caco-2) is “YES”. Besides, in data set [5], the “Δlog kW^IAM” value is given as 3.26. In addition, the “log kW^IAM” value in data set [6] was 1.96. The compound further came in with a BRlogD in [7] of -0.29.

In the case of `O=C1COc2ccc(cc2)Nc2ccnc(n2)Nc2cnn(c2)CCCN1` [Compound 6b], the EPSA in the data set “EPSA polarity descriptor” came to 108 A^2. Besides, the “logk'80 PLRP-S” value in [1] was -0.85. Besides, the figures for the Papp A→B at 2 h, 10 µM in [2] (setting [12]) and in data set [2] (setting [14]) were 0.6 ± 0.1 ×10⁻⁶ cm/s and 5.5 ± 0.2 ×10⁻⁶ cm/s, respectively. Besides, the values for the Papp B→A at 2 h, 10 µM in data set [2] (setting [13]) and in data set [2] (setting [15]) were 22.3 ×10⁻⁶ cm/s and 20.3 ×10⁻⁶ cm/s, respectively. This compound also displayed a Chamelogk in data set [3] of 1.95. In addition, in data set [4] (liver microsomes), the microsomal CLint at 1 h, 1 µM came to 12.1 ± 0.1 µL/min/mg. Besides, the Pgp substrate result at Pgp (Caco-2 model) is recorded as “YES”. Moreover, the “Δlog kW^IAM” value in data set [5] worked out at 2.58. Moreover, the “log kW^IAM” value in data set [6] stood at 1.53. The same compound displayed a BRlogD in [7] of -0.03.
